Data published in patent US20240368145A1, “METHODS FOR TREATING CANCER” (IMMUNIC AG, priority 2021, published 2024).

Assays:
IL-17F = assay: Cytokine assay, human PBMC stimulated with PHA: IL-17F; assay type: cell-based; settings: PHA-activated, 48 hours, read-out: IL-17F inhibition (IC50 range)
Method: (§1) Peripheral blood mononuclear cells (PBMC) from healthy human donors were purified using Accuspin™ System-Histopaque-1077 (Sigma) according to the protocol recommended by the manufacturer. Purified PBMC were then washed twice with phosphate-buffered saline (PBS) and resuspended in RPMI1640 culture medium supplemented with 10% dialyzed heat inactivated fetal calf serum, 1.5 mM L-glutamine, 100 U penicillin/mL and […] streptomycin/mL (all from PAN Biotech, Aidenbach, Germany). For stimulation, PBMC were seeded at 1×10^5 cells/well, activated with 2 gg/mL phytohaemagglutinin (PHA, Sigma) and incubated with the test compounds for 48 hours. IL-17A, IL-17F and INFγ were then determined in the culture supernatant using a Luminex BioPlex system, following the manufacturer's instructions (BioRad, Munich, Germany). To determine the IC50, compounds were titrated semilogarithmically.
(§2) Cytokines were determined in the aforementioned culture supernatant using the following methods: IL-17A was measured using the human homodimer IL-17A ELISA Ready Set Go Kit from cBioscience (Frankfurt, Germany); IL-17F using the human IL-17F ELI-Pair from Holzel Diagnostica GmbH (K51n, Germany); and IFNγ using the OptEIA human IFN-g ELISA from BD Bioscience (Heidelberg, Germany), all following the manufacturer's instructions.

KLK2 mRNA = assay: Expression of AR target genes (qRT-PCR) in 22Rv1: KLK2; assay type: cell-based; settings: 22Rv1, 1 μM; for KLK2 mRNA level expression: 48 h; for mrna remaining at 1 µM: Homo sapiens; for mrna remaining at 1 µM / KLK2 mRNA expression: 48h, relative to vehicle control (DMSO)
Method: (§3) The prostate cancer cell line 22Rv1 was treated for 48h with 1 μM Example compound 1, 1/1, 2/1, 2/2, 2/3, 2/4, 2/5, 2/6, 2/7, 2/8, 2/9 and 2/10 and reference compounds SR2211 and XY018. RNA was extracted using the RNA isolation kit XS (Macherey-Nagel) and following the manufacture's manual. RNA quantity was measured with the Nanodrop before reverse transcription using Superscript II (Invitrogen #100004925). For the quantitative real-time PCR with SYBR-Green (Qiagen #204074), the following primers were used:
(§4) qRT-PCR was performed using SYBR-Green (Qiagen #204074) reagents in a PCR cycler (Gorbett Research) Rotor Gene RG3000 with the following program: denaturation for 5′ at 95° C.; 40 cycles of 20″ at 95° C. and 15″ at 60° C.″ and at the end of the last cycle, the melting temperature of the products was determined by gradually increasing from 60° C. to 99° C. CT values from all samples were normalized to reference (housekeeping) genes using the mean CT value of the GAPDH and YWHAZ (reference genes). Next the values are put relative to the untreated control (vehicle/DMSO).

[1] = system: full length AR (AR-FL) mRNA; assay: Androgen receptor RNA level expression (qRT-PCR) in 22Rv1: AR-FL; assay type: cell-based; settings: 22Rv1, 1 μM, 48 h; for mrna remaining at 1 µM: Homo sapiens; for mrna remaining at 1 µM / AR-FL mRNA expression: normalized to untreated control (vehicle/DMSO)
Method: (§5) The prostate cancer cell line 22Rv1 was treated for 48 h with 1 μM Example compound 1, 1/1, 1/2, 2/1, 2/2, 2/3, 2/4, 2/5, 2/6, 2/7, 2/8, 2/9 and 2/10 and the reference compounds SR2211 and XY018 (Nat. Med. 2016; 22:488). RNA was extracted using the RNA isolation kit XS (Macherey-Nagel) and following the manufacture's manual. RNA quantity was measured with the Nanodrop before reverse transcription using Superscript II (Invitrogen #100004925). For the quantitative real-time PCR with SYBR-Green (Qiagen #204074), the following primers were used: AR forward-ACATCAAGGAACTCGATCGTATCATTGC and reverse-TTGGGCACTTGCACAGAGAT, AR-V7: forward-CCATCTTGTCGTCTTCGGAAATGTTATGAAGC and reverse-TTTGAATGAGGCAAGTCAGCCTTTCTT. The qRT-PCR proceeded as follows: denaturation for 5 min 95° C.; 40 cycles of “20 sec at 95° C. and 15 sec at 60° C.” and at the end of the last cycle, the melting temperature of the products was determined by gradually increasing it from 60° C. to 99° C. CT values from all samples were normalized to two different reference (housekeeping) genes using the mean CT value of the GAPDH and YWHAZ (reference genes). Next the values are normalized to the untreated control (vehicle/DMSO).

IL-17A = assay: Cytokine assay, human PBMC stimulated with PHA: IL-17A; assay type: cell-based; settings: PHA-activated, 48 hours, read-out: IL-17A inhibition (IC50 range)
Method: as §1, §2

IFNγ = assay: Cytokine assay, human PBMC stimulated with PHA: IFNγ; assay type: cell-based; settings: PHA-activated, 48 hours, read-out: IFNγ inhibition (IC50 range)
Method: as §1, §2

AML cell line HL-60 = assay: CellTiter-Blue proliferation assay, HL-60; assay type: cell-based; settings: Homo sapiens, geometric mean relative IC50, 72 hours, read-out: IC50 range for cell line HL-60
Method: (§6) Aim of this study was to evaluate compounds of Example 1, 1/1, 2/2, 2/5 and 2/6 in a proliferation assays. The 5 test compounds were tested in a CellTiter-Blue® based proliferation assay in three AML cell lines (HL-60, THP-1 and MOLM-13). The compounds were tested at 10 concentrations in half-log increments (highest concentration 30 μM or 100 μM) in duplicates. The incubation period with the applied compounds was fixed to 72 hours.

NKX3.1 mRNA = assay: Expression of AR target genes (qRT-PCR) in 22Rv1: NKX3.1; assay type: cell-based; settings: Homo sapiens; 22Rv1, 1 μM, 48h; relative to vehicle control (DMSO)
Method: as §3, §4

FKBP5 mRNA = assay: Expression of AR target genes (qRT-PCR) in 22Rv1: FKBP5; assay type: cell-based; settings: Homo sapiens; 22Rv1, 1 μM, 48h; relative to vehicle control (DMSO)
Method: as §3, §4

AML cell line MOLM-13 = assay: CellTiter-Blue proliferation assay, MOLM-13; assay type: cell-based; settings: Homo sapiens, geometric mean relative IC50, 72 hours, read-out: IC50 range for cell line MOLM-13
Method: as §6

AML cell line THP-1 = assay: CellTiter-Blue proliferation assay, THP-1; assay type: cell-based; settings: Homo sapiens, geometric mean relative IC50, 72 hours, read-out: IC50 range for cell line THP-1
Method: as §6

AR-V7 mRNA = assay: Androgen receptor RNA level expression (qRT-PCR) in 22Rv1: AR-V7; assay type: cell-based; settings: 22Rv1, 1 μM, 48 h; for mrna remaining at 1 µM: Homo sapiens
Method: as §5

AR-V7 protein = assay: Androgen receptor protein expression (western blot) in 22Rv1: AR-V7; assay type: cell-based, human; settings: 22Rv1, 6 μM, 48 h; western blot quantification
Method: (§7) After 48 h, cell were lysed using cell extraction buffer (Life Technologies #FNN0011) for western blot. […] The membrane is then incubation for 1 hour in blocking buffer (5% milk in 20 mM Tris, 150 mM NaCl, pH 7.5, 0.05% Tween 20 [TBS-T]). After this incubation, the primary antibody is added and incubated overnight at 4° C. After washing, the membrane was incubated with the secondary antibody for 1 h. Visualization of the bands was performed using the femto maximum sensitivity substrate reagent and the luminescence signal recorded with the Fusion FX7 (Vilber). For protein quantification, InageJ was used.

CAMKK2 mRNA = assay: Expression of AR target genes (qRT-PCR) in 22Rv1: CAMKK2; assay type: cell-based; settings: 22Rv1, 1 μM, 48h; relative to vehicle control (DMSO)
Method: as §3, §4

AR-FL protein = assay: Androgen receptor protein expression (western blot) in 22Rv1: AR-FL; assay type: cell-based, human; settings: 22Rv1, 6 μM, 48 h; western blot quantification
Method: as §7

[2] = normalized to untreated control (vehicle/DMSO)

SMILES	IC50 (IL-17F)	KLK2 mRNA level expression (KLK2 mRNA)	mrna remaining at 1 µM (KLK2 mRNA)	full length AR (AR-FL) mRNA expression [1]	mrna remaining at 1 µM [1]	IC50 (IL-17A)	IC50 (IFNγ)	IC50 (AML cell line HL-60)	mrna remaining at 1 µM (NKX3.1 mRNA)	mrna remaining at 1 µM (FKBP5 mRNA)	IC50 (AML cell line MOLM-13)	IC50 (AML cell line THP-1)	AR-V7 mRNA expression (AR-V7 mRNA)	mrna remaining at 1 µM (AR-V7 mRNA; [2])	AR-V7 protein level (AR-V7 protein)	KLK2 mRNA expression (KLK2 mRNA)	AR-FL mRNA expression [1]	CAMKK2 mRNA expression (CAMKK2 mRNA)	AR-FL protein level (AR-FL protein)	AR-V7 mRNA expression (AR-V7 mRNA; [2])
C[C@]1(O)C[C@@H](n2ncc(-c3onc(-c4c(F)cccc4Cl)c3-c3ncccn3)c2C(F)(F)F)C1 [2/5]	< 25 nM	strong inhibition	37.7%	strong reduction	45.4%	< 25 nM	< 25 nM	< 10 nM	30.7%	27.1%	< 10 nM	< 10 nM	strong reduction	23.9%	–	–	–	–	–	–
C[C@]1(O)C[C@@H](n2ncc(-c3onc(-c4ccccc4Cl)c3-c3ncccn3)c2C(F)(F)F)C1 [2/6]	< 25 nM	strong inhibition	42.8%	strong reduction	54.9%	< 25 nM	< 25 nM	< 10 nM	44%	33.8%	< 10 nM	10 to 100 nM	strong reduction	30.4%	–	–	–	–	–	–
COC(=O)c1c(-c2c(F)cccc2Cl)noc1-c1cnn([C@H]2C[C@@](C)(O)C2)c1C(F)(F)F [Example 2/2]	< 25 nM	strong inhibition	34.1%	strong reduction	38%	< 25 nM	< 25 nM	< 10 nM	25.5%	24.6%	< 10 nM	10 to 100 nM	strong reduction	19.9%	–	–	–	–	–	–
OC(c1ccc(-c2ccc(CN3CCN(Cc4ccncc4)CC3)cc2)c(F)c1)(C(F)(F)F)C(F)(F)F [SR2211, reference compound]	–	–	–	–	–	–	–	–	–	–	–	–	–	–	0.728	1.284	1.058	1.009	0.675	1.059
O=C(Cc1ccccc1[N+](=O)[O-])Nc1ccc(-c2ccc(C(O)(C(F)(F)F)C(F)(F)F)cc2F)cc1 [XY018, reference compound]	–	–	–	–	–	–	–	–	–	–	–	–	–	–	0.653	0.831	1.111	0.959	0.588	1.237
